What was measured:
[1] = system: AMP-activated protein kinase (AMPK); test: Activity (phospho level) of AMPK in liver tissue by Western blotting; format: in vivo, rats; conditions: activity decreased due to alcohol intake; oral daily for the last week, alone or concurrently; FIG. 8
Procedure: (§1) Sodium dodecyl sulfate-polyacrylamide gel electrophoresis (SDS-PAGE) was carried out using Mighty Small II SE 250 apparatus according to the Laemmli UK method (1970). Lysis fraction of liver tissue was diluted in a sample dilution buffer [63 mM Tris (pH 6.8), 10% glycerol, 2% SDS, 0.0013% bromophenol blue, 5% β-mercaptoethanol] and electrophoresis was performed in an electrode buffer (15 g of Tris, 72 g of glycine and 5 g of SDS in 1 L) using 7.5% and 9% gel. After electrophoresis, proteins were transferred to nitrocellulose paper at 190 mAmps for a duration of 1 hour, using a transfer buffer [25 mM Tris, 192 mM glycine, 20% v/v methanol (pH 8.3)]. Anti-fatty acid synthase, anti-iNOS, anti-phospho AMPK-α anti-phospho ACC, anti-Fox01, anti-Fox03 and anti-CYP2E1 were reacted as primary antibodies. […] Change in the expression of proteins was analyzed by determining the color intensity of blots through densitometry. […]
(§2) The levels of AMPK (AMP-activated protein kinase), a critical enzyme involved in the oxidation of fatty acid, and phosphate form of ACC (acetyl-CoA carboxylase), a substrate of AMPK, in the liver tissue taken in Example 1 were analyzed by Western blotting.

[2] = system: fatty acid synthase (FAS); test: Expression of FAS in liver tissue by Western blotting; format: in vivo, rats; conditions: expression decreased by chronic alcohol intake; oral daily for the last week, alone at high dose or concurrently; FIG. 5
Text: The decreased expression of FAS was not restored by the administration of metadoxine or garlic oil alone at high dose.

[3] = system: inducible nitric oxide synthase (iNOS); test: Expression of iNOS in liver tissue by Western blotting; format: in vivo, rats; conditions: expression strongly induced by chronic alcohol intake; oral daily for the last week, alone or concurrently; FIG. 7
Text: iNOS is an enzyme strongly inducing inflammation in liver tissue. The induction of the expression of iNOS is considered as a primary mechanism of alcohol-induced liver damage (Mckim, et al., Gastroenterology 125:1834-1844, 2003; and Venkatraman A, et al., Hepatology 40: 565-573, 2004).

[4] = system: acetyl-CoA carboxylase (ACC); conditions: activity decreased due to alcohol intake; oral daily for the last week, alone or concurrently; FIG. 9
Procedure: as §1, §2

## Cc1ncc(CO)c(CO)c1O.O=C1CCC(C(=O)O)N1 [metadoxine, pyridoxol 1-2-pyrrolidone-5-carboxylate]
[1]
  activity of AMPK in liver tissue: no change
[2]
  expression of fatty acid synthase (FAS) in liver tissue: not restored
[3]
  expression of iNOS in liver tissue: decreased
[4]
  activity of ACC in liver tissue: no change

— US8158170B2 (SNU R&DB Foundation, priority 2006, dated 2012)
